Measurements taken from US20190075787A1, “COMPOSITIONS AND METHODS FOR CROP DEFENSE” (AdvanSix Resins & Chemicals LLC, priority 2017, published 2019).

Legend:
[1] = general statement, no test described; cited from earlier work
[2] = general statement, no test described; cited from earlier work; remark: listed apart in the source
[3] = Herbicide comparative solubility: saflufenacil dissolved in each solvent; assay type: physicochemical; settings: room temperature; vials of 20, 30, 40 and 50 wt. % saflufenacil
Experimental: (§1) The solubility of the herbicide saflufenacil was determined for thirteen solvents. Three of the solvents were caprolactam-derived solvents in accordance with this disclosure. The remaining ten were comparative solvents. The solubility of saflufenacil was evaluated for each solvent by preparing four, 2 ml vials containing 20 wt. %, 30 wt. %, 40 wt. % and 50 wt. % of saflufenacil. To prepare the 20 wt. % vial, 0.040 g of saflufenacil was added to 0.160 ml of solvent. To prepare the 30 wt. % vial, 0.060 g of saflufenacil was added to 0.140 ml of solvent. To prepare the 40 wt. % vial, […] of saflufenacil was added to 0.120 ml of solvent. To prepare the 50 wt. % vial, 0.100 g of saflufenacil was added to 0.100 ml of solvent. The vials were capped and swirled at room temperature until no change in solubility was observed. […] Solvents 1-3 are in accordance with the present disclosure. Solvents 4-13 are comparative solvents.

[4] = Insecticide comparative solubility: bifenthrin dissolved in each solvent; assay type: physicochemical; settings: room temperature; vials of 20, 30, 40 and 50 wt. % bifenthrin
[5] = Fungicide comparative solubility: tebuconazole dissolved in each solvent; assay type: physicochemical; settings: room temperature; vials of 20, 30, 40 and 50 wt. % tebuconazole
Experimental: as §1, with “observed. Test samples including the fungicide tebuconazole were prepared as described above for Example 1 for saflufenacil.” for “observed.”, “As in Table 1 above, solvents” for “Solvents”, “disclosure and solvents” for “disclosure. Solvents”

[6] = Hansen Solubility Parameters of solvents; assay type: physicochemical
Text: As is known in the art, Hansen Solubility Parameters can be used to predict the effectiveness of a solvent. […] Thus, one skilled in the art would not expect the caprolactam-derived solvents to be as effective as NMP and other commonly used solvents.

SMILES | maximum weight percentage of saflufenacil dissolved in each solvent [3] | maximum weight percentage of bifenthrin dissolved in each solvent [4] | maximum weight percentage of tebuconazole dissolved in each solvent [5] | other results
CN1CCCCCC1=O [Solvent 1, N-methylcaprolactam] | – | – | – | carcinogen [1]: not considered to be either a reproductive toxin or a carcinogen; reproductive toxin [2]: not considered to be either a reproductive toxin or a carcinogen
CN1CCCCCC1=O [Solvent 1] | 40% | 40% | 50% | –
CCN1CCCCCC1=O [Solvent 2] | 30% | 50% | 50% | –
CCCCN1CCCCCC1=O [Solvent 3] | 20% | 40% | 40% | –
CN1CCCC1=O [Solvent 4, N-methyl-2-pyrrolidone] | – | – | – | reproductive toxin [2]: has been found to be a reproductive toxin
CN1CCCC1=O [Solvent 4] | 50% | 50% | 50% | –
CCCCN1CCCC1=O [Solvent 5] | 30% | 50% | 40% | –
CCCCCCCCCC(=O)N(C)C [Solvent 6] | 30% | 30% | 30% | –
COC(=O)CCCCC(=O)N(C)C [Solvent 7, N,N-dimethyladipamide methyl ester] | – | – | – | Hansen Solubility Parameters: Dispersion [6]: 17.2; Hansen Solubility Parameters: Hydrogen Bonding [6]: 9.3; Hansen Solubility Parameters: Polarity [6]: 9.7
O=C1CCCCC1 [Solvent 9] | <20% | 50% | 40% | –
N#CCCN1CCCCCC1=O [Solvent 13] | <20% | <20% | <20% | –
O=C1CCCCCN1 [caprolactam] | – | – | – | carcinogen [1]: has not been found to be, and is not expected to be, either a reproductive toxin or a carcinogen; reproductive toxin [2]: has not been found to be, and is not expected to be, either a reproductive toxin or a carcinogen
CC1=CC(=O)CC(C)(C)C1 [isophorone] | – | – | – | carcinogen [1]: suspected carcinogen
